Tests used:
ALOMY [1] = experiment: Herbicidal post-emergence action 1a (greenhouse pots, visual rating); format: in vivo, Alopecurus myosuroides; details: rated visually about 3 weeks after treatment, 100% = plants have died, 0% = like control plants
Procedure, shortened: (§1)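 Visual scoring versus untreated plants (100% = plants dead, 0% = as control) followed roughly 3 weeks in the greenhouse after treatment. Plants grown in sandy loam pots had been sprayed on green parts at the one-leaf stage, 2–3 weeks post-sowing, with aqueous WP/EC preparations containing 0.5% additive, 600 l/ha, at 320 and/or 80 g/ha.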

AVEFA [2] = experiment: as above; format: in vivo, Avena fatua; details: rated visually about 3 weeks after treatment, 100% = plants have died, 0% = like control plants
Procedure, shortened: as §1

DIGSA = experiment: as above; format: in vivo, Digitaria sanguinalis; details: rated visually about 3 weeks after treatment, 100% = plants have died, 0% = like control plants
Procedure, shortened: as §1

LOLRI = experiment: as above; format: in vivo, Lolium rigidum; details: rated visually about 3 weeks after treatment, 100% = plants have died, 0% = like control plants
Procedure, shortened: as §1

VIOTR = experiment: as above; format: in vivo, Viola tricolor; details: visual rating about 3 weeks after treatment
Procedure, shortened: as §1

ALOMY [3] = experiment: Herbicidal pre-emergence action 2a (greenhouse pots, visual scoring); format: in vivo, Alopecurus myosuroides; details: dosage 320 g/ha, visual scoring after about 3 weeks
Procedure, shortened: (§2)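 The soil covering sown seeds is treated with an aqueous suspension or emulsion of wettable powder or emulsion concentrate (0.5% additive, 600 l/ha), corresponding to 320 g/ha and/or 80 g/ha. After about 3 weeks of greenhouse growth, damage is scored visually as a percentage.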

AVEFA [4] = experiment: as above; format: in vivo, Avena fatua; details: dosage 320 g/ha, visual scoring after about 3 weeks
Procedure, shortened: as §2

AMARE = experiment: as above; format: in vivo, Amaranthus retroflexus; details: dosage 320 g/ha, visual scoring after about 3 weeks vs untreated controls
Procedure, shortened: as §2

ECHCG = experiment: Herbicidal pre-emergence action 2b (doubly sown, 1280 g/ha); format: in vivo, Echinochloa crus-galli; details: doubly sown pots, dosage 1280 g/ha, visual scoring after about 3 weeks
Procedure, shortened: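 Sandy loam pots, one mono- or dicot species each, double sowing; seeds covered. Aqueous WP/EC spray + 0.5% additive, 600 L/ha, onto cover soil. GH, ~3 wk, visual % vs control.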

harmful plants = experiment: Herbicidal post-emergence action 1a, summary across species; format: in vivo; details: Tables A1 to A15 (320 g/ha and/or 80 g/ha)

COC(=O)[C@@H](C)Oc1nn(-c2cnccn2)c(-c2cncc(F)c2)c1Br [Example I-39]
90%: Post-emergence action against ALOMY in % (ALOMY [1]; Dosage 80 g/ha) | Post-emergence action against AVEFA in % (AVEFA [2]; Dosage 320 g/ha) | Post-emergence action against DIGSA in % (DIGSA; Dosage 320 g/ha) | Post-emergence action against LOLRI in % (LOLRI; Dosage 80 g/ha) | Post-emergence action against LOLRI in % (LOLRI; Dosage 320 g/ha) | Post-emergence action against VIOTR in % (VIOTR; dosage 320 g/ha) | Pre-emergence action against AVEFA in % (AVEFA [4])
100%: Post-emergence action against ALOMY in % (ALOMY [1]; Dosage 320 g/ha) | Pre-emergence action against ALOMY in % (ALOMY [3]) | Pre-emergence action against AMARE in % (AMARE) | Pre-emergence action at 1280 g/ha against ECHCG in % (ECHCG)
80%: Post-emergence action against AVEFA in % (AVEFA [2]; Dosage 80 g/ha) | Post-emergence action against DIGSA in % (DIGSA; Dosage 80 g/ha) | Post-emergence action against VIOTR in % (VIOTR; dosage 80 g/ha)
good herbicidal efficacy: herbicidal efficacy against harmful plants in the case of post-emergence treatment (in words) (harmful plants)

Reference: US20230167088A1, “1-PYRAZINYLPYRAZOLYL-3-OXYALKYL ACIDS AND THEIR DERIVATIVES, AND THEIR USE FOR CONTROL OF UNDESIRED PLANT GROWTH” (BAYER AKTIENGESELLSCHAFT, priority 2020, published 2023)
